Here are results for 20 compounds from patent US12304912B2, “Fused bicyclic RAF inhibitors and methods for use thereof” (Jazz Pharmaceuticals Ireland Limited, priority 2020, dated 2025).

Values after ≈ are worked out from the molar mass of the structure shown. Structures can show the parent of a compound that is named as a salt. Where two headings read alike, the source gives them in different places.

The nature of data set [1]: FeSSIF solubility assay. Format: physicochemical. Conditions: fed state simulated intestinal fluid (FeSSIF), thermodynamic from solid, pH 5 acetate buffer, 37° C. As to the method: FeSSIF Solubility Assay 1 mL of fed state simulated intestinal fluid (FeSSIF), prepared using FaSSIF/FeSSIF/FaSSGF powder (Biorelevant.com) and pH 5 acetate buffer, was added to 1.0 mg of compound and then incubated for 24 h (Bioshake iQ, 650 rpm, 37° C.). Following filtration under positive pressure, the concentration of compound in solution was assessed by LC-UV in comparison to the response for a calibration standard of known concentration (250 μM). FeSSIF solubility results are described in Tables 1-2.

Data set [2] deals with constitutive ERK phosphorylation in WiDr cells. Description: WiDr AlphaLISA SureFire pERK1/2 cellular assay. Conditions: Homo sapiens, WiDr cells, 2 hr, read-out: pERK WiDr (2 hr) Abs pIC50 (converted). In kind it is cell-based, human. As to the method: The human HCT-116 colorectal carcinoma cell line (ATCC CCL-247) endogenously expresses the KRAS^G13D mutation, which leads to constitutive activation of the MAP kinase pathway and phosphorylation of ERK. […] Assay read outs took place 2 or 24 hours after dosing with compounds. On the first day, HCT-116 cells were harvested, resuspended in growth medium (McCoys5A with Glutamax (Life Technologies 36600021) and 10% heat-inactivated fetal bovine serum (Sigma F9665)), and counted. Cells were plated in 100 μl per well in each well of a 96-well culture dish (Sigma CLS3598) to a final density of 30,000 (2 hr read) or 15,000 (24 hr read) cells per well and incubated over night at 37° C. and 5% CO2. On day 2, the growth medium was exchanged for dosing medium (McCoys5A with Glutamax (Life Technologies 36600021) and 1% heat-inactivated fetal bovine serum (Sigma F9665)) and the cells were dosed with compounds to produce a 10-point dose response, where the top concentration was 1 μM and subsequent concentrations were at 1/3 log dilution intervals. A matched DMSO control was included. The cells were subsequently incubated for either 2 or 24 hours at 37° C. and 5% CO2. After incubation, media was removed and the cells were incubated with lysis buffer containing phosphatase inhibitors for 15 minutes at room temperature. Cell lysates were transferred to a 12 area 96 well white Optiplate™ (Perkin Elmer 6005569) and incubated with anti-mouse IgG acceptor beads, a biotinylated anti-ERK1/2 rabbit antibody recognizing both phosphorylated and non-phosphorylated ERK1/2, a mouse antibody targeted to the Thr202/Tyr204 epitope and recognizing phosphorylated ERK proteins only, and streptavidin-coated donor beads. The biotinylated antibody binds to the streptavidin-coated donor beads and the phopsho-ERK1/2 antibody binds to the acceptor beads. Plates were read on an EnVision reader (Perkin Elmer) and excitation of the beads at 680 nm with a laser induced the release of singlet oxygen molecules from the donor beads that trigger energy transfer to the acceptor beads in close proximity, producing a signal that can be measured at […]. Both antibodies bound to phosphorylated ERK proteins, bringing the donor and acceptor beads into close proximity. All data were analyzed using the Dotmatics or GraphPad Prism software packages. Inhibition of ERK phosphorylation was assessed by determination of the absolute IC50 value, which is defined as the concentration of compound required to decrease the level of phosphorylated ERK proteins by 50% when compared to DMSO control.
WiDr AlphaLISA SureFire pERK1/2 Cellular Assay
The human WiDr colorectal adenocarcinoma cell line (ATCC CCL-218) endogenously expresses the BRAF^V600E mutation, which leads to constitutive activation of the MAP kinase pathway and phosphorylation of ERK. […] The main procedure is essentially the same as for HCT-116 cells (above), with the following adjustments to the growth medium (Eagle's Minimum Essential Medium (Sigma M2279) with 1× Glutamax (Life Technologies 35050038), 1× Sodium-Pyruvate (Sigma S8636), and 10% heat-inactivated fetal bovine serum (Sigma F9665)), the dosing medium (Eagle's Minimum Essential Medium (Sigma M2279) with 1× Glutamax (Life Technologies 35050038), 1× Sodium-Pyruvate (Sigma S8636), and 1% heat-inactivated fetal bovine serum (Sigma F9665)), and the seeding densities (2 hr: 50,000 cells per well; 24 hr: 35,000 cells per well). Moreover, the compounds were dosed in 1/2 log dilution intervals with the top concentration of 10 μM.
In general terms: In Alpha technology, singlet oxygen from a donor bead excites a nearby acceptor bead.

The nature of data set [3]: Solubility (Sol), medium not stated. Format: physicochemical. Conditions: cells not marked (FESSIF).
The test system of data set [4] is WiDr cells. Put plainly: WiDr CellTiter-Glo 3D cell proliferation assay. In kind it is cell-based. Conditions: Homo sapiens; WiDr cells, 3D proliferation; read-out: 3D WiDr pGI50 (converted).

In the case of `CCc1cc(-c2c[nH]c(C3COc4ccc(Oc5ccnc6c5CCC(=O)N6)cc4C3)n2)n(C2CC2)n1` (centres unmarked) [Compound 113, 5-[3-[4-(2-cyclopropyl-5-ethyl-pyrazol-3-yl)-1H-imidazol-2-yl]chroman-6-yl]oxy-3,4-dihydro-1H-1,8-naphthyridin-2-one], the solubility thermodynamic at 24 h in data set [1] (read-out: FESSIF Sol) was 140 µg/mL (≈ 281 µM). Further, in data set [2] (Abs), the IC50 was 1480 nM.
For `CN(C)c1ccc2[nH]c(C3COc4ccc(Oc5ccnc6c5CCC(=O)N6)cc4C3)nc2c1` (centres unmarked) [Compound 26], the IC50 in data set [2] (absolute IC50) was 302 nM. The same compound showed a Sol in data set [3] of less than 1.1 mg/L.
As to `O=C1CCc2c(Oc3ccc4c(c3)CC(c3nc5cc(Cl)ccc5[nH]3)CO4)ccnc2N1` (centres unmarked) [Compound 25], in data set [1] (read-out: Sol (FESSIF)), the solubility thermodynamic at 24 h was 1.8 µg/mL (≈ 4.03 µM). Moreover, the IC50 in data set [2] (absolute IC50) is 129 nM.
As to `O=C(Nc1cc(Oc2ccc3c(c2)CC(c2nc(-c4ccccc4)c[nH]2)CO3)ccn1)C1CC1` (centres unmarked) [Compound 45, N-[4-[3-(4-phenyl-1H-imidazol-2-yl)chroman-6-yl]oxy-2-pyridyl]cyclopropanecarboxamide], in data set [2] (absolute IC50), the IC50 was 66.1 nM. In data set [3], this compound came in with a Sol of less than 1.2 mg/L.
As to `Cc1cc(-c2c[nH]c(C3COc4ccc(Oc5ccnc6c5CCC(=O)N6)cc4C3)n2)n(C2CC2)n1` (centres unmarked) [Compound 114, 5-[3-[4-(2-cyclopropyl-5-methyl-pyrazol-3-yl)-1H-imidazol-2-yl]chroman-6-yl]oxy-3,4-dihydro-1H-1,8-naphthyridin-2-one], the solubility thermodynamic at 24 h in data set [1] (read-out: FESSIF Sol) was 497 µg/mL (≈ 1030 µM). In addition, the IC50 in data set [2] (Abs) was 1350 nM.
`O=C1CCc2c(Oc3ccc4c(c3)CN(C(=O)Nc3cccc(C(F)(F)F)c3)CC4)ccnc2N1` [Compound 50]: the IC50 in data set [2] (absolute IC50) was 97.7 nM. For the same compound, the Sol in data set [3] is reported as less than 1.2 mg/L.
In the case of `COc1cc(-c2c[nH]c(C3COc4ccc(Oc5ccnc6c5CCC(=O)N6)cc4C3)n2)ccn1` (centres unmarked) [Compound 19, 5-[3-[4-(2-methoxy-4-pyridyl)-1H-imidazol-2-yl]chroman-6-yl]oxy-3,4-dihydro-1H-1,8-naphthyridin-2-one], in data set [1] (read-out: Sol (FESSIF)), the solubility thermodynamic at 24 h is 19.6 µg/mL (≈ 41.7 µM). Moreover, in data set [2] (absolute IC50), the IC50 was 1100 nM.
With `O=C1CCc2c(Oc3ccc4c(c3)CC(c3nc5cc(C(F)(F)F)ccc5[nH]3)CO4)ccnc2N1` (centres unmarked) [Compound 22, 5-[3-[6-(trifluoromethyl)-1H-benzimidazol-2-yl]chroman-6-yl]oxy-3,4-dihydro-1H-1,8-naphthyridin-2-one], the IC50 in data set [2] (absolute IC50) is 120 nM. Moreover, in data set [3], the Sol was less than 1.2 mg/L.
Turning to `O=C1CCc2c(Oc3ccc4c(c3)CC(c3nc(-c5ccc(C(F)(F)F)nc5)c[nH]3)CO4)ccnc2N1` (centres unmarked) [Compound 127, 5-[3-[4-[6-(trifluoromethyl)-3-pyridyl]-1H-imidazol-2-yl]chroman-6-yl]oxy-3,4-dihydro-1H-1,8-naphthyridin-2-one], the solubility thermodynamic at 24 h in data set [1] (read-out: FESSIF Sol) is 6 µg/mL (≈ 11.8 µM).
Take `O=C1CCc2c(Oc3ccc4c(c3)CN(C(=O)Nc3ccc(C(F)(F)F)cc3)CC4)ccnc2N1` [Compound 47]: the solubility thermodynamic at 24 h in data set [1] (read-out: Sol (FESSIF)) was 27.5 µg/mL (≈ 57 µM). Also, the IC50 in data set [2] (absolute IC50) was 117 nM.
On to `N#Cc1ccc2[nH]c(C3COc4ccc(Oc5ccnc6c5CCC(=O)N6)cc4C3)nc2c1` (centres unmarked) [Compound 24], for which the IC50 in data set [2] (absolute IC50) was 501 nM. The Sol in data set [3] was less than 1.1 mg/L.
Turning to `O=C1CCc2c(Oc3ccc4c(c3)CC(c3nc(-c5cccc(C(F)(F)F)c5)c[nH]3)CO4)ccnc2N1` (centres unmarked) [Compound 12, 5-[3-[4-[3-(trifluoromethyl)phenyl]-1H-imidazol-2-yl]chroman-6-yl]oxy-3,4-dihydro-1H-1,8-naphthyridin-2-one], the IC50 in data set [2] (absolute IC50) was 123 nM. For the same compound, the Sol in data set [3] was less than 1.3 mg/L.
In the case of `O=C1CCc2c(Oc3ccc4c(c3)CC(c3nc(-c5cccnc5C(F)(F)F)c[nH]3)CO4)ccnc2N1` (centres unmarked) [Compound 128, 5-[3-[4-[2-(trifluoromethyl)-3-pyridyl]-1H-imidazol-2-yl]chroman-6-yl]oxy-3,4-dihydro-1H-1,8-naphthyridin-2-one], the solubility thermodynamic at 24 h in data set [1] (read-out: FESSIF Sol) was 1.6 µg/mL (≈ 3.15 µM).
For the compound `O=C1CCc2c(Oc3ccc4c(c3)CC(c3nc5cc(C(F)(F)F)ncc5[nH]3)CO4)ccnc2N1` (racemic) [Compound 32], in data set [2] (absolute IC50), the IC50 was 204 nM. Besides, in data set [3], the Sol is less than 1.2 mg/L.
`Cc1cc(-c2c[nH]c(C3COc4ccc(Oc5ccnc6c5CCC(=O)N6)cc4C3)n2)n(CC(F)(F)F)n1` (centres unmarked) [Compound 126, 5-[3-[4-[5-methyl-2-(2,2,2-trifluoroethyl)pyrazol-3-yl]-1H-imidazol-2-yl]chroman-6-yl]oxy-3,4-dihydro-1H-1,8-naphthyridin-2-one]: the solubility thermodynamic at 24 h in data set [1] (read-out: FESSIF Sol) is less than 1.3 µg/mL. Also, in data set [2] (Abs), the IC50 is 1020 nM. Also, the GI50 in data set [4] is 15100 nM.
With `Cc1cc(-c2c[nH]c(C3COc4ccc(Oc5ccnc6c5CCC(=O)N6)cc4C3)n2)n(C(C)C)n1` (centres unmarked) [Compound 112, 5-[3-[4-(2-isopropyl-5-methyl-pyrazol-3-yl)-1H-imidazol-2-yl]chroman-6-yl]oxy-3,4-dihydro-1H-1,8-naphthyridin-2-one], the solubility thermodynamic at 24 h in data set [1] (read-out: FESSIF Sol) was 51.1 µg/mL (≈ 105 µM). In addition, the IC50 in data set [2] (Abs) was 1000 nM.
Regarding `O=C1CCc2c(Oc3ccc4c(c3)CC(c3nc5cc(F)c(F)cc5[nH]3)CO4)ccnc2N1` (centres unmarked) [Compound 23], the IC50 in data set [2] (absolute IC50) was 229 nM. In data set [3], the Sol is given as less than 1.1 mg/L.
Consider `O=C1CCc2c(Oc3ccc4c(c3)CN(c3nc(-c5ccccc5)n[nH]3)CC4)ccnc2N1` [Compound 44, 5-[[2-(3-phenyl-1H-1,2,4-triazol-5-yl)-3,4-dihydro-1H-isoquinolin-7-yl]oxy]-3,4-dihydro-1H-1,8-naphthyridin-2-one hydrochloride], for which the IC50 in data set [2] (absolute IC50) is 355 nM. The Sol in data set [3] was less than 1.2 mg/L.
On the same counts, the results for `Cc1cc2nc(C3COc4ccc(Oc5ccnc6c5CCC(=O)N6)cc4C3)[nH]c2cc1C` (centres unmarked) [Compound 29] are 107 nM and less than 1.1 mg/L.
Consider `O=C(Nc1cc(Oc2ccc3c(c2)CC(c2nc(-c4ccccc4)c[nH]2)CO3)ccn1)C1CC(F)(F)C1` (centres unmarked) [Compound 139], for which the solubility thermodynamic at 24 h in data set [1] (read-out: FESSIF Sol) is 107 µg/mL (≈ 212 µM).
